Laboratory results taken from US11324709B2, “Fatty acid amides and uses thereof in the treatment of addiction disorder and addiction related conditions” (Yissum Research Development Company of The Hebrew …, priority 2017, dated 2022).
Like-named read-outs stand apart in the source and are kept apart here.

Assays:
Sprague-Dawley rats [1] = test system: Sprague-Dawley rats
nicotine-dependent mice = settings: cited from earlier work
ICR mice [2] = test: Morphine CPP in mice; type: in vivo, mouse; settings: OlGly 30 mg/kg i.p., morphine 10 mg/kg s.c. for 3 days
Procedure: Male C57BL/6 mice (Charles River, Italy) weighing 18-20 g were used for the mild TBI Weight Drop (WD) model. Mice were housed three per cage under controlled illumination (12 h light/dark cycle; light on 6:00 A.M.) and standard environmental conditions (ambient temperature 20-22° C., humidity 55-60%) for at least 1 week before the beginning of experiments. Animal chow and tap water were available ad libitum. Male ICR mice (6-8 weeks old; Harlan, Indianapolis, Ind.) with a body mass of 27-32 g served as subjects in all in vivo pharmacology experiments. Mice were group-housed (four per cage) on a 12/12 light/dark cycle (lights on at 0600 h) and given food and water ad libitum. All animal protocols were approved by the Virginia Commonwealth University Institutional Animal Care and Use Committee, were in accordance with the National Institutes of Health Guide for the Care and Use of Laboratory Animals (Institute of Laboratory Animal Resources, 2011), and by the Animal Ethics Committee of The Second University of Naples, in compliance with Italian (D.L. 116/92) and European Commission (O.J. of E.C. L358/1 18/12/86) regulations on the protection of laboratory animals. All efforts were made to reduce both animal numbers and suffering during the experiments. […]

Sprague-Dawley rats [3] = test: Establishment of naloxone precipitated MWD-induced conditioned place aversion (Experiment 2); type: in vivo, rat
Procedure: Rats (n=22) received two 3-day conditioning cycles in order to attain a naloxone precipitated MWD-induced place avoidance. On Day 1, the floor opposite to the assigned drug floor was paired with a s.c. saline injection. Ten minutes after a saline injection, the rats were placed into the conditioning box with the assigned saline-paired floor for 20 minutes while their locomotion was tracked with Ethovision. On Day 2, the rats received a high dose of morphine (20 mg/kg) s.c., 24 h after the saline conditioning trial the previous day. After the injection, they were placed in an empty shoebox cage and monitored for signs of respiratory distress and stimulated when necessary until they recovered and were returned to the home cage. On Day 3, 24 h post morphine injections, the rats were injected with either VEH (n=12) or OlGly (n=12) 10 min prior to receiving an s.c. injection of naloxone. Ten min later they were placed into the conditioning box with the assigned naloxone-paired floor for 20 minutes while their locomotion was tracked using Ethovision. Four days later, all rats underwent a second 3-day conditioning cycle. Five days following the last naloxone trial, a 10 min drug-free test trial was performed. The test trial consisted of the same procedures as the pre-test trial, but rats were given a s.c. saline injection 10 min prior to the test. […]

mice = settings: cited from earlier work
Sprague-Dawley rats [4] = test: Potential of OlGly to produce a CPP or CPA (place conditioning, Experiment 1); type: in vivo, rat; settings: 5 mg/kg ip
Procedure: Rats (n=12) received two conditioning trials with oleoyl glycine. On each trial they received intraperitoneal (ip) injections of 5 mg/kg oleoyl glycine or VEH (24 hr apart; counterbalanced order) 20 minutes prior to placement in the conditioning box lined with the grid or hole floor (counterbalanced) for 20 minutes.

ICR mice [5] = test: Cannabinoid tetrad behavioral assessment; type: in vivo, mouse; settings: i.p.
Procedure: Male C57BL/6 mice (Charles River, Italy) weighing 18-20 g were used for the mild TBI Weight Drop (WD) model. Mice were housed three per cage under controlled illumination (12 h light/dark cycle; light on 6:00 A.M.) and standard environmental conditions (ambient temperature 20-22° C., humidity 55-60%) for at least 1 week before the beginning of experiments. Animal chow and tap water were available ad libitum. Male ICR mice (6-8 weeks old; Harlan, Indianapolis, Ind.) with a body mass of 27-32 g served as subjects in all in vivo pharmacology experiments. Mice were group-housed (four per cage) on a 12/12 light/dark cycle (lights on at 0600 h) and given food and water ad libitum. All animal protocols were approved by the Virginia Commonwealth University Institutional Animal Care and Use Committee, were in accordance with the National Institutes of Health Guide for the Care and Use of Laboratory Animals (Institute of Laboratory Animal Resources, 2011), and by the Animal Ethics Committee of The Second University of Naples, in compliance with Italian (D.L. 116/92) and European Commission (O.J. of E.C. L358/1 18/12/86) regulations on the protection of laboratory animals. All efforts were made to reduce both animal numbers and suffering during the experiments.
[^2H]8AEA, [^2H]52-AG, [^2H]4 PEA, [^2H]4 OEA, [^2H]8 N-arachidonoyldopamine (NADA), [^2H]8AraSer and [^2H]8AraGly were purchased from Cayman Chemicals (MI, USA). OlGly was synthetized in the Mechoulam laboratory and CP55,940 ((−)-cis-3-[2-hydroxy-4-(1,1-dimethylheptyl)phenyl]-trans-4-(3-hydroxypropyl)cyclohexanol) and morphine sulfate were generously provided by NIDA (Rockville, Md.). OlGly and CP55,940 were dissolved in a vehicle solution consisting of ethanol (5% of total volume), alkamuls-620 (Sanofi-Aventis, Bridgewater, N.J.) (5% of total volume), and saline (0.9% NaCl) (90% of total volume). Oleoyl glycine and CP55,940 were given via the intraperitoneal (i.p.) route of administration. (−)-Nicotine hydrogen tartrate [(−)-1-methyl-2-(3-pyridyl)pyrrolidine (+)-bitartrate] and mecamylamine HCl were purchased from Sigma-Aldrich Inc. (St. Louis, Mo., USA). Morphine sulfate [morphine hemi[sulfate pentahydrate]] Nicotine and mecamylamine (2 mg/kg) were dissolved in physiological saline and given via the subcutaneous (s.c.) route of administration in a volume of 10 ml/kg. For the nicotine CPP study, 0.5 mg/kg nicotine dose was used because this dose reliably produces significant CPP in ICR mouse (18). Morphine CPP was performed with 10 mg/kg (s.c.) as recently described (19). For nicotine withdrawal studies, 24 mg/kg/day nicotine or saline was continuously perfused for 14 days using s.c. osmotic minipumps (model 2000; Alzet Corporation, Cupertino, Calif.) that were implanted under isoflurane anesthesia. This prolonged nicotine administration regimen reliably produces significant withdrawal syndrome in the three behavioral paradigms used here.
Mice were acclimated to the test environment for at least 1 h prior to testing for tetrad components: spontaneous activity, catalepsy, antinociception, and hypothermia (7-9). In the locomotor studies, subjects were administered vehicle or drug and 5 min later were placed into clear acrylic boxes (approx. 44.5 cm×22.25 cm×20.0 cm) contained within sound-attenuating cabinets equipped with an LED light source and fans for general air circulation and creation of white noise. The distance traveled (cm) and time spent immobile (s) for each mouse were collected and recorded for 10 min using Fire-i™ digital cameras purchased from Unibrain (San Ramon, Calif., USA) and ANY-maze™ video tracking software purchased from Stoelting Company (Wood Dale, Ill., USA). Mice were assessed for baseline tail withdrawal latencies and body temperature, given an intraperitoneal (i.p.) injection of vehicle or drug (OlGly), and 30 min later assessed in the following order: catalepsy, tail withdrawal test, and body temperature. […]

CCCCCCCC/C=C\CCCCCCCC(=O)NCC(=O)O [OlGly, oleoyl glycine]
establishment of a morphine-induced place preference (Sprague-Dawley rats [1]; 5 mg/kg OlGly i.p. 10 min prior to morphine 10 mg/kg s.c.): did not modify | establishment of a morphine-induced place preference (Sprague-Dawley rats [1]; 30 mg/kg OlGly i.p. 10 min prior to morphine 10 mg/kg s.c.): did not modify | precipitated withdrawal responses (nicotine-dependent mice): reduced | withdrawal induced place aversion (nicotine-dependent mice): reduced | expression of morphine CPP (ICR mice [2]): did not attenuate | establishment of the naloxone precipitated MWD-induced CPA (Sprague-Dawley rats [3]; 5 mg/kg OlGly 10 min prior to naloxone, drug by floor interaction p=0.017): significantly interfered | activity during the conditioning trials (Sprague-Dawley rats [3]; pretreatment with 5 mg/kg OlGly, naloxone conditioning trials): did not modify activity | melting point: 93 to 94 °C (dec.) | nicotine-induced place preference (mice): interfered | place preference or place aversion produced by OlGly itself (mice): neither a place preference nor a place aversion | motoric effects during conditioning (activity measure) compared to VEH (Sprague-Dawley rats [4]): no motoric effects | time spent on the oleoyl glycine paired floor (mean) (Sprague-Dawley rats [4]; 10 min drug-free test trial, VEH paired floor 232.16 sec): 299.00 s | preference or aversion for the drug paired floor (Sprague-Dawley rats [4]; two conditioning trials, drug-free test trial): did not produce a significant preference or aversion | cataleptic responses (bar test) (ICR mice [5]): did not elicit cataleptic responses | antinociception (tail immersion) (ICR mice [5]; FIG. 5A): did not produce | hypothermia (ICR mice [5]; FIG. 5B): did not produce | motor behavior: distance traveled (ICR mice [5]; FIG. 5C): did not produce | motor behavior: speed (ICR mice [5]; FIG. 5D): did not produce | motor behavior: immobility time (ICR mice [5]; FIG. 5E): did not produce
